Assay results published in paper PMC6590626 (OncoTargets and therapy, 2019).

Target: T1, IKKβ (Homo sapiens, UniProt O14920)
T1 sequence (O14920 1-756): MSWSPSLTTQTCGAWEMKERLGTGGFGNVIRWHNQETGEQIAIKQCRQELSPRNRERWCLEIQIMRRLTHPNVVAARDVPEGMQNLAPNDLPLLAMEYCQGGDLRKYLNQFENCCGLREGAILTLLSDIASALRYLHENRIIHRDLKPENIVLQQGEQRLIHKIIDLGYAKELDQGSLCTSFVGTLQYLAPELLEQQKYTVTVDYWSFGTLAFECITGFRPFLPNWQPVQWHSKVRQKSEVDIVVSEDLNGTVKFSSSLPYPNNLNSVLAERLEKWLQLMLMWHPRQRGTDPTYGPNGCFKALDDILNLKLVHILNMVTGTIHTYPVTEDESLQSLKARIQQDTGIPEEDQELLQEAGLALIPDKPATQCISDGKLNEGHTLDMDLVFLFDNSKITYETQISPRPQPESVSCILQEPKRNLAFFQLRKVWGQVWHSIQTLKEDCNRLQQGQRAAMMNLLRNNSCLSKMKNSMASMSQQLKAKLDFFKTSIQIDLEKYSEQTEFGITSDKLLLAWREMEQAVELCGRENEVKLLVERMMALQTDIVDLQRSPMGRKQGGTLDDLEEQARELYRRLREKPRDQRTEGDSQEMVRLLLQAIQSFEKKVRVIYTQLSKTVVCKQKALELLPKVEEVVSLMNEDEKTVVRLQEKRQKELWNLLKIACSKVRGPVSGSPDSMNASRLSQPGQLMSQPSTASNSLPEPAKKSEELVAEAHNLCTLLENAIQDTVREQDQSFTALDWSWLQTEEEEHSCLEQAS
Assay: SPR
Format: binding

`CC(C)C1=CC2=CC[C@@H]3[C@](C)(CCC[C@@]3(C)C(=O)O)[C@H]2CC1` [AA, Abietic acid] was tested, and the Kd was 32 µM.
